Measurements: patent US20100209345A1, “Fluorinated Ligands for Targeting Peripheral Benzodiazepine Receptors” (Australian Nuclear Science & Technology Organisation, priority 2006, published 2010)
Values belong to the molecule of their own block, whether it stands above or below them.

Key:
[1] = Biodistribution of 18F-labelled tracers in rats; type: in vivo
Experimental: [^18F]Fluoride, in the form of H^18F, was produced by the ^18O(p,n)^18F nuclear reaction by bombardment of ^18O-enriched water target. The aqueous [^18F]fluoride solution was added to a 2.5-mL wheaton vial containing dry acetonitrile (1 mL), Kryptofix 2.2.2 (5 mg, 13.3 μmol) and potassium carbonate (2 mg, 14.5 μmol). The solvent was evaporated under a stream of nitrogen at 90° C. with a reducing vacuum. This azeotropic drying was repeated twice by further addition of acetonitrile (2×1 mL). The tosylate precursor 2-(2-(4-(2-tosylethoxy)phenyl)-6-chloroimidazo[1,2-a]pyridin-3-yl)-N,N-diethylacetamide (2 mg, 3.6 μmol) was dissolved in acetonitrile (1 ml) and added to the dried K222.K2CO3.KF complex. Stirring and heating at 90° C. continued for 10 to 15 mins before the reaction mixture was diluted with mobile phase and purified by reverse phase HPLC on an Alltech Alltima, C18, 10μ, 250×22 mm column eluting at 10 mLs/min with 45% acetonitrile, 55% water with 0.1% TFA.
(§1) The biodistribution of PBR132* was undertaken in SD rats and analysis up to 4 h p.i. in the brain and peripheral tissues was performed. The specificity and selectivity of the tracer were assessed by pre-treatment with PBR and Central benzodiazepine receptor (CBR) specific ligands (1 mg/kg) 5 min prior to injection of PBR132*.
(§2) The biodistribution of PBR 147* was performed in SD rats and brain and peripheral tissues were analysised at 15, 30 min, 1, and 4 h p.i. The specificity and selectivity of the tracer was assessed by pre-treatment of the animals with the PBR ligands PK11195 and Ro 5-4864 and with Flumazenil for CBR at 1 mg/kg 5 min prior to injection of PBR 147*
(§3) The biodistribution of PBR102* and PBR111* were performed in SD rats and brain and peripheral tissues analysed at 15, 30 min, 1, and 4 h p.i. The specificity and selectivity of the tracers were assessed by pre-treatment with the PBR ligands PK11195 and Ro 5-4864 and with Flumazenil for CBR at 1 mg/kg 5 min prior to injection of the corresponding tracers.
(§4) The specificity and selectivity of the tracers were assessed by pre-treatment with the PBR ligands PK11195 and Ro 5-4864 and with Flumazenil for CBR at 1 mg/kg 5 min prior to injection of the corresponding tracers.

[2] = target: T1, peripheral benzodiazepine receptors (Rattus norvegicus, UniProt P16257); test: In vivo blocking / competition of tracer uptake by pre-treatment with PBR and CBR ligands; conditions: rats; for Tracer uptake after pre-treatment with PK 11195 / Tracer uptake after pre-treatment with Ro 5-4864: PBR-expressing tissues (brain/peripheral organs, adrenals apart); for Tracer uptake after pre-treatment with flumazenil (central benzodiazepine ligand): flumazenil 1 mg/kg 5 min prior to tracer, brain or peripheral organs
T1 construct: high uptake in the tissues which have known PBR sites; from tissue; host or cells: organs of living SD rats (brain and peripheral tissues), in vivo
Experimental: The criteria for significance were **p<0.01 (highly significant) and *p<0.05 (significant). No stars implies not statistical difference from normals or controls.
as §1, §2, §3, §4

[3] = system: central benzodiazepine receptors; test: In vitro binding, [3H]-Flumazenil, brain cortex membrane preparation; conditions: @ 10^−5M, [3H]-Flumazenil
Experimental: Non-specific binding was determined with Flumazenil (20 μM). In both cases, incubations were terminated by rapid filtration through Whatman GF/B glass fibre. Filters were immediately washed 3 times with 5 mL ice-cold 50 mM Tris/HCl at pH 7.4. Filters were counted in a β-scintillation counter (Packard) to measure the amount of bound radioactivity. The IC50 of the compounds for the peripheral benzodiazepine binding site and the central benzodiazepine receptor were calculated using Kell 6 software.

[4] = SD rats, 15 min, decay correction not stated
[5] = SD rats, 4 hours, decay correction not stated
[6] = rats, 15 min, corrected for decay of 18F
[7] = rats, 30 min, corrected for decay of 18F
[8] = rats, 60 min, corrected for decay of 18F
[9] = rats, 4 hours, corrected for decay of 18F

SMILES: CCN(CC)C(=O)Cc1c(-c2ccc(C(C)(C)C)cc2)nc2ccc([18F])nn12 [PBR132*, 2-(2-(4-tert-butylphenyl)-6-fluoroimidazo[1,2-b]pyridazin-3-yl)-N,N-diethylacetamide]
Biodistribution: Bone [1, 4]: 1 % ID/g
Biodistribution: Heart [1, 4]: 8 % ID/g
Biodistribution: Kidney [1, 4]: 4 % ID/g
Biodistribution: Lungs [1, 4]: 16 % ID/g
Biodistribution: Olfactory bulbs [1, 4]: 0.63 % ID/g
Biodistribution: Adrenals ([1]; SD rats, 30 min, decay correction not stated): 13 % ID/g
Biodistribution: Bone [1, 5]: 3.3 % ID/g
Biodistribution: Heart [1, 5]: less than 2.3 % ID/g
Biodistribution: Kidney [1, 5]: less than 2.3 % ID/g
Biodistribution: Lungs [1, 5]: less than 2.3 % ID/g
Biodistribution: Olfactory bulbs [1, 5]: 0.25 % ID/g
Blood activity level / concentration in the blood over the 4 h study period ([1]; SD rats, throughout 15 min to 4 h): low
Biodistribution: Adrenals [1, 6]: 10.03 ± 1.11 % ID/g
Biodistribution: Bladder [1, 6]: 0.73 ± 0.33 % ID/g
Biodistribution: Blood [1, 6]: 0.41 ± 0.05 % ID/g
Biodistribution: Bone [1, 6]: 1.04 ± 0.14 % ID/g
Biodistribution: Brain [1, 6]: 0.35 ± 0.03 % ID/g
Biodistribution: GIT [1, 6]: 1.08 ± 0.08 % ID/g
Biodistribution: Heart [1, 6]: 8.13 ± 0.77 % ID/g
Biodistribution: Kidney [1, 6]: 4.10 ± 0.28 % ID/g
Biodistribution: Liver [1, 6]: 1.22 ± 0.17 % ID/g
Biodistribution: Lungs [1, 6]: 16.09 ± 2.56 % ID/g
Biodistribution: Muscle [1, 6]: 0.89 ± 0.28 % ID/g
Biodistribution: Olfactory bulbs [1, 6]: 0.63 ± 0.09 % ID/g
Biodistribution: Pancreas [1, 6]: 2.01 ± 0.26 % ID/g
Biodistribution: Skin [1, 6]: 0.60 ± 0.09 % ID/g
Biodistribution: Spleen [1, 6]: 5.85 ± 0.93 % ID/g
Biodistribution: Stomach [1, 6]: 0.58 ± 0.19 % ID/g
Biodistribution: Testes [1, 6]: 0.31 ± 0.03 % ID/g
Biodistribution: Thymus [1, 6]: 0.78 ± 0.20 % ID/g
Biodistribution: Thyroid [1, 6]: 8.87 ± 1.06 % ID/g
Biodistribution: Adrenals [1, 7]: 13.21 ± 1.16 % ID/g
Biodistribution: Bladder [1, 7]: 0.87 ± 0.36 % ID/g
Biodistribution: Blood [1, 7]: 0.32 ± 0.05 % ID/g
Biodistribution: Bone [1, 7]: 1.25 ± 0.18 % ID/g
Biodistribution: Brain [1, 7]: 0.23 ± 0.02 % ID/g
Biodistribution: GIT [1, 7]: 1.36 ± 0.22 % ID/g
Biodistribution: Heart [1, 7]: 8.34 ± 0.86 % ID/g
Biodistribution: Kidney [1, 7]: 3.94 ± 0.54 % ID/g
Biodistribution: Liver [1, 7]: 1.18 ± 0.33 % ID/g
Biodistribution: Lungs [1, 7]: 11.58 ± 2.11 % ID/g
Biodistribution: Muscle [1, 7]: 0.91 ± 0.10 % ID/g
Biodistribution: Olfactory bulbs [1, 7]: 0.46 ± 0.11 % ID/g
Biodistribution: Pancreas [1, 7]: 1.97 ± 0.32 % ID/g
Biodistribution: Skin [1, 7]: 0.65 ± 0.08 % ID/g
Biodistribution: Spleen [1, 7]: 6.89 ± 0.80 % ID/g
Biodistribution: Stomach [1, 7]: 0.64 ± 0.11 % ID/g
Biodistribution: Testes [1, 7]: 0.31 ± 0.03 % ID/g
Biodistribution: Thymus [1, 7]: 0.80 ± 0.06 % ID/g
Biodistribution: Thyroid [1, 7]: 9.15 ± 0.87 % ID/g
Biodistribution: Adrenals [1, 8]: 11.24 ± 2.03 % ID/g
Biodistribution: Bladder [1, 8]: 0.84 ± 0.08 % ID/g
Biodistribution: Blood [1, 8]: 0.17 ± 0.00 % ID/g
Biodistribution: Bone [1, 8]: 2.06 ± 0.10 % ID/g
Biodistribution: Brain [1, 8]: 0.12 ± 0.00 % ID/g
Biodistribution: GIT [1, 8]: 1.78 ± 0.04 % ID/g
Biodistribution: Heart [1, 8]: 6.87 ± 0.53 % ID/g
Biodistribution: Kidney [1, 8]: 3.24 ± 0.15 % ID/g
Biodistribution: Liver [1, 8]: 0.67 ± 0.06 % ID/g
Biodistribution: Lungs [1, 8]: 6.40 ± 0.50 % ID/g
Biodistribution: Muscle [1, 8]: 0.50 ± 0.03 % ID/g
Biodistribution: Olfactory bulbs [1, 8]: 0.36 ± 0.05 % ID/g
Biodistribution: Pancreas [1, 8]: 1.20 ± 0.19 % ID/g
Biodistribution: Skin [1, 8]: 0.64 ± 0.07 % ID/g
Biodistribution: Spleen [1, 8]: 5.56 ± 0.67 % ID/g
Biodistribution: Stomach [1, 8]: 0.47 ± 0.05 % ID/g
Biodistribution: Testes [1, 8]: 0.32 ± 0.01 % ID/g
Biodistribution: Thymus [1, 8]: 0.88 ± 0.07 % ID/g
Biodistribution: Thyroid [1, 8]: 18.30 ± 1.00 % ID/g
Biodistribution: Adrenals [1, 9]: 13.51 ± 0.61 % ID/g
Biodistribution: Bladder [1, 9]: 0.99 ± 0.30 % ID/g
Biodistribution: Blood [1, 9]: 0.07 ± 0.00 % ID/g
Biodistribution: Bone [1, 9]: 3.28 ± 0.65 % ID/g
Biodistribution: Brain [1, 9]: 0.07 ± 0.00 % ID/g
Biodistribution: GIT [1, 9]: 2.93 ± 0.39 % ID/g
Biodistribution: Heart [1, 9]: 4.71 ± 0.31 % ID/g
Biodistribution: Kidney [1, 9]: 2.31 ± 0.17 % ID/g
Biodistribution: Liver [1, 9]: 0.31 ± 0.03 % ID/g
Biodistribution: Lungs [1, 9]: 2.42 ± 0.25 % ID/g
Biodistribution: Muscle [1, 9]: 0.24 ± 0.06 % ID/g
Biodistribution: Olfactory bulbs [1, 9]: 0.25 ± 0.03 % ID/g
Biodistribution: Pancreas [1, 9]: 0.57 ± 0.10 % ID/g
Biodistribution: Skin [1, 9]: 0.67 ± 0.17 % ID/g
Biodistribution: Spleen [1, 9]: 2.64 ± 0.36 % ID/g
Biodistribution: Stomach [1, 9]: 0.72 ± 0.24 % ID/g
Biodistribution: Testes [1, 9]: 0.42 ± 0.06 % ID/g
Biodistribution: Thymus [1, 9]: 1.02 ± 0.06 % ID/g
Biodistribution: Thyroid [1, 9]: 7.41 ± 0.68 % ID/g
Uptake in tissues which have known PBR sites ([1]; rats, in vivo biodistribution): high uptake
Tracer uptake after pre-treatment with PK 11195 ([2]; PK 11195 1 mg/kg 5 min prior to tracer): decreased
Tracer uptake after pre-treatment with PK 11195 ([2]; PK 11195 1 mg/kg 5 min prior to tracer, listed as [^18F]PBR132): blocking effect
Tracer uptake in the adrenals after pre-treatment with PK 11195 ([2]; PK 11195 1 mg/kg 5 min prior to tracer, adrenals): increase
Tracer uptake after pre-treatment with Ro 5-4864 ([2]; Ro 5-4864 1 mg/kg 5 min prior to tracer): decreased
Tracer uptake after pre-treatment with Ro 5-4864 ([2]; Ro 5-4864 1 mg/kg 5 min prior to tracer, listed as [^18F]PBR132): blocking effect
Tracer uptake in the adrenals after pre-treatment with Ro 5-4864 ([2]; Ro 5-4864 1 mg/kg 5 min prior to tracer, adrenals): increase
Tracer uptake after pre-treatment with flumazenil (central benzodiazepine ligand) [2]: no effect
Tracer uptake after pre-treatment with flumazenil (central benzodiazepine ligand) ([2]; listed as [^18F]PBR132): does not reduce
Tracer uptake after pre-treatment with the non-radioactive analogue ([2]; non-radioactive analogue 1 mg/kg, PBR-expressing tissues): blocking effect

CBR, % @ 10^−5M [3]: 50% @ 10^−5M
chromatographic logP (LogP HPLC): 3.16 ± 0.1
SMILES: CCN(CC)C(=O)Cc1c(-c2ccc(OCCCF)cc2)nn2c(C)cc(C)nc12 [PBR 146, 2-(2-(4-(3-fluoropropoxy)phenyl)-5,7-dimethylpyrazolo[1,5-a]pyrimidin-3-yl)-N,N-diethylacetamide]
